Data: PMC4947684, “In Vivo and In Vitro Genotoxic and Epigenetic Effects of Two Types of Cola Beverages and Caffeine: A Multiassay Approach” (BioMed Research International, 2016)
Like-named read-outs stand apart in the source and are kept apart here.

Columns and labels:
[1] = test system: HL-60; design: method as in PMID 1311329; conditions: at 5 mM; cited from earlier work
[2] = test system: HL-60 cells; assay: DNA fragmentation status (internucleosomal ladder); type: cell-based, human; conditions: HL-60, 5 h, any CAF treatment
Procedure: The ability of our compounds to induce DNA fragmentation was determined as described by Anter et al.. […] After treatment, genomic DNA was extracted using a commercial kit (Blood Genomic DNA Extraction Mini Spin Kit, […] Biotech, Cordoba, Spain). Subsequently, DNA was incubated overnight with RNase at 37°C and quantified in a spectrophotometer (Nanodrop® ND-1000). Finally, 1200 ng DNA was electrophoresed in a 2% agarose gel for 120 min at 50 V, stained with ethidium bromide, and visualised under UV light. The apoptosis process is recognised by the appearance of internucleosomal DNA fragments that are multiple of 200 base pairs.

[3] = test system: LINE-1; assay: Methylation status of HL-60 cells (qMSP); type: cell-based, human; conditions: HL-60, 5 h, 0.51 mM
Procedure: Then, DNA was extracted similarly to previously described DNA fragmentation assay. After that, the DNA was converted with bisulphite (EZ DNA Methylation-Gold™ Kit). Bisulphite-modified DNA was used for fluorescence-based real-time quantitative Methylation-Specific PCR (qMSP) using 5 μM of each forward and reverse primer (Isogen Life Science BV), 2 μL of iTaq™ Universal SYBR® Green Supermix (Bio-Rad, it contains antibody-mediated hot-start iTaq DNA polymerase, dNTPs, MgCl2, SYBR Green I Dye, enhancers, stabilizers, and a blend of passive reference dyes including ROX and fluorescein) and 25 ng of bisulphite converted genomic DNA. PCR conditions included initial denaturalisation at 95°C for 3 minutes and amplification which consisted of 45 cycles at 95°C for 10 seconds, 60°C for 15 seconds, and 72°C for 15 seconds, taking picture at the end of each elongation cycle. After that, melting curve was determined increasing 0.5°C each […] from 60°C to 95°C and taking pictures. QMSP was carried out in 48-well plates in MiniOpticon Real-Time PCR System (MJ Mini Personal Thermal Cycler, Bio-Rad) and were analysed by Bio-Rad CFX Manager 3.1 software. […] Alu-C4 and the target repetitive elements Alu M1, LINE-1, and Sat-α were obtained from Isogen Life Science and their sequences are shown in Table 1. Each sample was analysed in triplicate. The results of each CT were obtained from each qMSP. […]

[4] = test system: Drosophila melanogaster; assay: Chronic treatments: lifespan and healthspan assays; type: in vivo; conditions: for Healthspan difference (%) / Mean lifespan difference (%): versus concurrent water control
Procedure: We also tested the same compounds and concentrations as in the toxicity/antitoxicity experiments. Lifespan assays were carried out at 25°C according to the procedure described by Fernandez-Bedmar et al.. Briefly, synchronised 72 ± 12-hour-old transheterozygous larvae were washed in distilled water, collected, and transferred in groups of 100 individuals into test vials containing 0.85 g Drosophila Instant Medium and 4 mL of the different concentrations of the compounds to be assayed. Emerged adults from pupae were collected under CO2 anaesthesia and placed in groups of 25 individuals of the same sex into sterile vials containing 0.21 g Drosophila Instant Medium and 1 mL of different concentrations of the compounds to be tested. Flies were chronically treated during all their life. The number of survivors was determined twice a week.

[5] = test system: D. melanogaster larvae
Procedure: (§2) Negative (H2O) and positive (0.15 M H2O2) toxicant concurrent controls were also assayed. Test groups consisted of larvae fed with Drosophila Instant Medium (Formula 4–24, Carolina Biological Supply, Burlington, NC) supplemented with the beverage concentrations tested. Emerging adults of all groups were counted and toxicity was determined as the percentage of hatched individuals in each treatment compared with the negative control. Antitoxicity was assessed using the same procedure and experimental concentrations as in toxicity assays, but in combined treatments with 0.15 M H2O2 and comparing the percentage of emerging adults with the positive toxicant control [34]. […] Negative control values were considered as those expected in Chi-square formula used in toxicity assay and positive control values in antitoxicity assays [35]. The same concentrations of toxicity and antitoxicity assays within the same substance were also compared.

[6] = test system: D. melanogaster larvae; assay: Antitoxicity assay (combined treatment with […] H2O2)
Procedure: as §2

[7] = test system: Drosophila melanogaster; assay: Antigenotoxicity, Drosophila wing spot test (SMART), combined with H2O2; conditions: combined treatment with […] H2O2, mwh/flr3, 0.51 mM
Procedure: (§3) Genotoxicity assays were carried out following the wing spot test standard procedure [20]. Briefly, transheterozygous larvae for mwh and flr ^3 genes were obtained by crossing four-day-old virgin flr ^3 females with mwh males in a 2 : 1 ratio. Four days after fertilization, females were allowed to lay eggs in fresh yeast medium (25 g yeast and 4 mL sterile distilled water) for 8 h in order to obtain synchronised larvae. After 72 h, larvae were collected, washed with distilled water, and clustered in groups of 100 individuals. […] Adult flies were collected and stored in 70% ethanol until the wings were removed and mounted on slides using Faure's solution. Mutant spots were assessed in both dorsal and ventral surfaces of the wings in a bright light microscope at 400x magnification. The frequencies of each type of mutant clone per wing (single, large, or twin spot) were compared to the concurrent negative control and analysed applying the binomial Kastenbaum and Bowman Test [36]. Antigenotoxicity tests were performed following the method described by Anter et al. [37]. […] Single and twin spots per wing were also recorded and compared with the concurrent positive control as described before. The recombination percentage was calculated following Valadares et al. [38] procedure and the inhibition percentages (IP) for the combined treatments were calculated from the control-corrected frequencies of clone formation per 10^5 cells, according to Abraham [39]: IP = [(genotoxin alone − combined treatment)/genotoxin alone] × 100.

[8] = test system: human breast cancer cells; design: method as in PMID 25691730; conditions: cited from earlier work
[9] = test system: HL-60 cells; assay: Cytotoxicity assay (trypan blue exclusion); type: cell-based, human; conditions: Homo sapiens; HL-60, highest tested concentration 20.4 mM; read-out: Inhibition of cell growth
Procedure: (§1) Promyelocytic human leukaemia (HL-60) cells were grown in RPMI-1640 medium (Sigma, R5886) supplemented with heat-inactivated foetal bovine serum (Linus, S01805), L-glutamine 200 mM (Sigma, G7513), and 1x antibiotic-antimycotic solution (Sigma, A5955). Cells were incubated at 37°C in a humidified atmosphere of 5% CO2. Cultures were plated at 2.5 × 10^4 cells/mL density in 10 mL culture bottles and passed every 2 days. The effect of the assayed compounds on cell viability was determined by the trypan blue exclusion test according to our standard procedures. […] After culture, cells were stained with a 1 : 1 volume ratio of trypan blue dye (Sigma, T8154) and counted in a Neubauer chamber at 100x magnification. The survival percentage of each treatment compared with the control was recorded in three independent replicates.

[10] = Cytotoxicity assay (trypan blue exclusion); type: cell-based, human; conditions: human, HL-60 cells; HL-60, 72 h; read-out: IC50 (cytotoxicity), not reached at highest tested concentration
Procedure: as §1

[11] = test system: Drosophila melanogaster; assay: Genotoxicity, Drosophila wing spot test (SMART); conditions: […] H2O2 alone
Procedure: as §3

[12] = mwh/TM3 balancers-heterozygous wings

Cn1c(=O)c2c(ncn2C)n(C)c1=O [CAF, 1,3,7-trimethylpurine-2,6-dione]
Growth inhibition (in words) [1]: inhibited HL-60 growth | Ladder pattern of fragmented internucleosomal DNA [2]: not observed | Methylation status [3]: decrease of methylation status | Healthspan (80th percentile) (days) ([4]; 0.004 mM, mean ± SE): 47 ± 2.65^∗∗ days | Mean lifespan ([4]; 0.004 mM, mean ± SE): 62.88 ± 1.7 days | Healthspan difference (%) ([4]; 0.004 mM): 55.73% | Mean lifespan difference (%) ([4]; 0.004 mM): 6.87% | Mean lifespan (days) ([4]; 0.032 mM, mean ± SE): 68.86 ± 2.38^∗∗ days | Healthspan difference (%) ([4]; 0.032 mM): 40.32% | Mean lifespan difference (%) ([4]; 0.032 mM): 17.02% | Mean lifespan (days) ([4]; 0.127 mM, mean ± SE): 70.91 ± 2.99^∗∗∗ days | Healthspan difference (%) ([4]; 0.127 mM): 22.23% | Mean lifespan difference (%) ([4]; 0.127 mM): 20.52% | Mean lifespan ([4]; 0.51 mM, mean ± SE): 61.14 ± 2.07 days | Healthspan difference (%) ([4]; 0.51 mM): 26.41% | Mean lifespan difference (%) ([4]; 0.51 mM): 3.91% | Drosophila lifespan increase, on average ([4]; on average): more than 15% | Survival (%) simple treatment ([5]; 0.004 mM): 100% | Survival (%) simple treatment ([5]; 0.032 mM): 100% | Survival (%) simple treatment ([5]; 0.127 mM): 100% | Survival (%) simple treatment ([5]; 0.51 mM): 100% | Survival (%) combined treatment ([6]; 0.004 mM + […] hydrogen peroxide): 54^Δ % | Survival (%) combined treatment ([6]; 0.032 mM + […] hydrogen peroxide): 51^Δ % | Survival (%) combined treatment ([6]; 0.127 mM + […] hydrogen peroxide): 54.66^Δ % | Survival (%) combined treatment ([6]; 0.51 mM + […] hydrogen peroxide): 51.33^Δ % | Clones per wings: large simple spots (>2 cells) m = 5 [7]: 0.125 (10) clones/wing | Clones per wings: small single spots (1-2 cells) m = 2 [7]: 0.325 (26) clones/wing | Clones per wings: total spots m = 2 [7]: 0.45 clones/wing | Clones per wings: twin spots m = 5 [7]: 0 clones/wing | Frequency of clone formation per 10^5 cells, control corrected [7]: 0.766 per 10^5 cells | Frequency of clone formation per 10^5 cells, observed [7]: 1.844 per 10^5 cells | IC50 [8]: ~5 mM | inhibition at 20400 µM [9]: ~40% | IC50 at 72 h [10]: > 20.4 mM

OO [H2O2, hydrogen peroxide]
Clones per wings: large simple spots (>2 cells) m = 5 [11, 12]: 0.013 (1) clones/wing | Clones per wings: small single spots (1-2 cells) m = 2 [11, 12]: 0.188 (15) clones/wing | Frequency of clone formation per 10^5 cells, observed ([11]; mwh/TM3 wings): 0.819 per 10^5 cells | Clones per wings: large simple spots (>2 cells) m = 5 ([11]; mwh/flr3 wings): 0.088 (7) clones/wing | Clones per wings: small single spots (1-2 cells) m = 2 ([11]; mwh/flr3 wings): 0.313 (25) clones/wing | Clones per wings: total spots m = 2 ([11]; mwh/flr3 wings): 0.438 clones/wing | Clones per wings: twin spots m = 5 ([11]; mwh/flr3 wings): 0.038 (3) clones/wing | Frequency of clone formation per 10^5 cells, control corrected ([11]; mwh/flr3 wings): 0.717 per 10^5 cells | Frequency of clone formation per 10^5 cells, observed ([11]; mwh/flr3 wings): 1.795 per 10^5 cells | Statistical diagnosis of total spots ([11]; mwh/flr3 wings, versus negative control): + | Survival (%) positive toxicant control ([6]; […] H2O2 alone): 46.66%
